Data as given in paper PMC10382584, “Macrocyclization of linear molecules by deep learning to facilitate macrocyclic drug candidates discovery” (Nature Communications, 2023).

How the values were obtained:
Test in all cases: biochemical
Parameters in all cases: DiscoveRx KINOMEscan competition binding, percent of DMSO control signal at 100 nM
Conditions in all cases: read-out: Fig. 4a / Percent Control / Compound 1; percent of DMSO control, competition binding
RIPK5 = target: T1, RIPK5 (Homo sapiens, UniProt Q6XUX3)
T1 construct: gene DSTYK

MAP3K3 = MAP3K3 (Homo sapiens, UniProt Q99759)
NEK7 = NEK7 (Homo sapiens, UniProt Q8TDX7)
MYLK = MYLK (Homo sapiens, UniProt Q15746)
HIPK4 = HIPK4 (Homo sapiens, UniProt Q8NE63)
MAP4K3 = MAP4K3 (Homo sapiens, UniProt Q8IVH8)
LKB1 = target: T2, LKB1 (Homo sapiens, UniProt Q15831)
T2 construct: gene STK11

ULK2 = ULK2 (Homo sapiens, UniProt Q8IYT8)
CSK = CSK (Homo sapiens, UniProt P41240)
CDKL5 = CDKL5 (Homo sapiens, UniProt O76039)
TNK2 = TNK2 (Homo sapiens, UniProt Q07912)
ACVR1B = ACVR1B (Homo sapiens, UniProt P36896)
GSK3A = GSK3A (Homo sapiens, UniProt P49840)
WNK3 = WNK3 (Homo sapiens, UniProt Q9BYP7)
FLT3(D835H) = FLT3(D835H) (Homo sapiens, UniProt P36888, D835H)
RIPK2 = RIPK2 (Homo sapiens, UniProt O43353)
WNK1 = WNK1 (Homo sapiens, UniProt Q9H4A3)
FGFR3 = FGFR3 (Homo sapiens, UniProt P22607)
GRK2 = GRK2 (Homo sapiens, UniProt P25098)
[1] = target: T3, JAK2(JH1domain-catalytic) (Homo sapiens, UniProt O60674)
T3 construct: JH1domain-catalytic

MRCKA = target: T4, MRCKA (Homo sapiens, UniProt Q5VT25)
T4 construct: gene CDC42BPA

ABL1-nonphosphorylated = target: T5, ABL1-nonphosphorylated (Homo sapiens, UniProt P00519)
T5 construct: nonphosphorylated

ROS1 = ROS1 (Homo sapiens, UniProt P08922)
[2] = target: T6, ABL1(H396P)-phosphorylated (Homo sapiens, UniProt P00519, H396P)
T6 construct: phosphorylated

DAPK3 = DAPK3 (Homo sapiens, UniProt O43293)
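Also: KINOMEscan kinase panel binding assay, signal normalized between DMSO as 100% and a positive control compound as 0%.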

Sequence of MYLK (Q15746 whole entry): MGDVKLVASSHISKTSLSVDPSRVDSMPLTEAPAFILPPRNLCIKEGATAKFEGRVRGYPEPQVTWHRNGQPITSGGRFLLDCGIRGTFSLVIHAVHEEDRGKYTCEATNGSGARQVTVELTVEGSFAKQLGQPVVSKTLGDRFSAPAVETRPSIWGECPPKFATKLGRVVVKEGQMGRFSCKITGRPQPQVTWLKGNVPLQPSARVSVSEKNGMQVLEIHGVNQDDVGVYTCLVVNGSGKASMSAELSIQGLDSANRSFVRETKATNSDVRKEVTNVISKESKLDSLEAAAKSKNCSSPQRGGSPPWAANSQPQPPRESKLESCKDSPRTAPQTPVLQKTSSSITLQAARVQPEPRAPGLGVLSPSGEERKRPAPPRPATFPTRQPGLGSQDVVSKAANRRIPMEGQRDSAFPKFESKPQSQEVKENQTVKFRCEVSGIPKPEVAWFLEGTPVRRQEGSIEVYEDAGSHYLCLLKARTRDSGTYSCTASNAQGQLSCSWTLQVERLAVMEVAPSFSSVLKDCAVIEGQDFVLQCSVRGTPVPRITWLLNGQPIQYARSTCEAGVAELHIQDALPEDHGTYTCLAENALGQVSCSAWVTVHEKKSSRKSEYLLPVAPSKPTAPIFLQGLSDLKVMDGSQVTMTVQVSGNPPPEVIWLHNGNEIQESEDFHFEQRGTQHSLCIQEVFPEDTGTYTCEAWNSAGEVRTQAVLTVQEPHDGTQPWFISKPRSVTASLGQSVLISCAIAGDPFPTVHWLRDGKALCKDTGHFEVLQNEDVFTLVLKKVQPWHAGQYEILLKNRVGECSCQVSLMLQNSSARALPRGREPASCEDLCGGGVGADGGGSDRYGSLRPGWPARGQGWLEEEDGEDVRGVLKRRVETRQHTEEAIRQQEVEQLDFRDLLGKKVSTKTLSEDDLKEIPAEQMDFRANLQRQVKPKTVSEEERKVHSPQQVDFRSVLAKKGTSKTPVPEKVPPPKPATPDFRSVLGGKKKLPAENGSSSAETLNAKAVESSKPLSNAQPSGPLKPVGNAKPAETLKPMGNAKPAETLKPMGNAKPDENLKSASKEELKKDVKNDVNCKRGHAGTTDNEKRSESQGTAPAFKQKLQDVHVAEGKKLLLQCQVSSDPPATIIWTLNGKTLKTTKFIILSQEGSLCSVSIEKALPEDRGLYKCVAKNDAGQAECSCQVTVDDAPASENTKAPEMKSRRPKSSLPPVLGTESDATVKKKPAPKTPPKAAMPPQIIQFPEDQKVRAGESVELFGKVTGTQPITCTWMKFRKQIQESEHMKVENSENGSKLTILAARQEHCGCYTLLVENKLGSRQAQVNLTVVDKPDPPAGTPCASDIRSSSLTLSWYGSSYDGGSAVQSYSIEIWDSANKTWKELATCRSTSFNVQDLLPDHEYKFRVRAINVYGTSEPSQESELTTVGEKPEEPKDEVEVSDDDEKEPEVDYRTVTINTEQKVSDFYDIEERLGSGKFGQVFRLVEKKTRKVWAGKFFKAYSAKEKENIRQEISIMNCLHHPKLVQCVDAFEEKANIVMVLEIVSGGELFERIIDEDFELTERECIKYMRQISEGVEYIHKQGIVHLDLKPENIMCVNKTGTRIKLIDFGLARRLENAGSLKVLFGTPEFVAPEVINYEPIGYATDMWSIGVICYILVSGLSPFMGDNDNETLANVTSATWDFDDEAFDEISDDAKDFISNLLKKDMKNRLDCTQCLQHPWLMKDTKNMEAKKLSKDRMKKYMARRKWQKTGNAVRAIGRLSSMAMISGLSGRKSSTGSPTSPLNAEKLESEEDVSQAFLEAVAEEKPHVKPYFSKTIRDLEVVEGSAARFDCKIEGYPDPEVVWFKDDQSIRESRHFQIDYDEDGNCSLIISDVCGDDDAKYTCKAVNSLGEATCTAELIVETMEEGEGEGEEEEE
Sequence of TNK2 (Q07912 whole entry): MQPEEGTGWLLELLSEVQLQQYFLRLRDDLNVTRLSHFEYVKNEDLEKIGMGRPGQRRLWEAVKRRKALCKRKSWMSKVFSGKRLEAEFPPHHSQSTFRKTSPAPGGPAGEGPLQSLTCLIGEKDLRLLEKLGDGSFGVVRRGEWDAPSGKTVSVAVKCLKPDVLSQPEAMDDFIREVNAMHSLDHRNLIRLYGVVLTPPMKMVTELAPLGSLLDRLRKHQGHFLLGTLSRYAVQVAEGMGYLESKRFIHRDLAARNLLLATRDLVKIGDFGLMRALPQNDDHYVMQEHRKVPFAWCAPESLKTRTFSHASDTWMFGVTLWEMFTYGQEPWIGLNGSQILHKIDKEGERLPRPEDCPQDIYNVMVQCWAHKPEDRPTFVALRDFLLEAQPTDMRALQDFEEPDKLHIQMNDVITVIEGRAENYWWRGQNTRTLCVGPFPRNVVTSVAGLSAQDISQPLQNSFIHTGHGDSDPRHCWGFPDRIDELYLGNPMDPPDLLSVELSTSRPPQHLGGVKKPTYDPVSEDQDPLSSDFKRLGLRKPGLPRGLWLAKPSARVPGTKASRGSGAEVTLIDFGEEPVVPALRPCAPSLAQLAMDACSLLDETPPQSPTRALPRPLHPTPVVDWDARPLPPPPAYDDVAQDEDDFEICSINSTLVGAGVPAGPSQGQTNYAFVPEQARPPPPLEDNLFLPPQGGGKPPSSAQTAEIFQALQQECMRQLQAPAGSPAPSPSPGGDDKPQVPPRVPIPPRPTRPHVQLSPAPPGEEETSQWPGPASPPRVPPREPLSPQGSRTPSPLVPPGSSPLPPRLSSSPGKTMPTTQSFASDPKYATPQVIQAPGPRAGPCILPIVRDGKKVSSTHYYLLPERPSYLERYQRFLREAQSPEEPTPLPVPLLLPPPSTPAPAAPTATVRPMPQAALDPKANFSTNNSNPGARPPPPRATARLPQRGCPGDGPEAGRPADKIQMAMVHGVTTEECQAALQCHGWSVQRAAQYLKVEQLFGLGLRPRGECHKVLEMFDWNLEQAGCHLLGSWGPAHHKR
Sequence of GRK2 (P25098 whole entry): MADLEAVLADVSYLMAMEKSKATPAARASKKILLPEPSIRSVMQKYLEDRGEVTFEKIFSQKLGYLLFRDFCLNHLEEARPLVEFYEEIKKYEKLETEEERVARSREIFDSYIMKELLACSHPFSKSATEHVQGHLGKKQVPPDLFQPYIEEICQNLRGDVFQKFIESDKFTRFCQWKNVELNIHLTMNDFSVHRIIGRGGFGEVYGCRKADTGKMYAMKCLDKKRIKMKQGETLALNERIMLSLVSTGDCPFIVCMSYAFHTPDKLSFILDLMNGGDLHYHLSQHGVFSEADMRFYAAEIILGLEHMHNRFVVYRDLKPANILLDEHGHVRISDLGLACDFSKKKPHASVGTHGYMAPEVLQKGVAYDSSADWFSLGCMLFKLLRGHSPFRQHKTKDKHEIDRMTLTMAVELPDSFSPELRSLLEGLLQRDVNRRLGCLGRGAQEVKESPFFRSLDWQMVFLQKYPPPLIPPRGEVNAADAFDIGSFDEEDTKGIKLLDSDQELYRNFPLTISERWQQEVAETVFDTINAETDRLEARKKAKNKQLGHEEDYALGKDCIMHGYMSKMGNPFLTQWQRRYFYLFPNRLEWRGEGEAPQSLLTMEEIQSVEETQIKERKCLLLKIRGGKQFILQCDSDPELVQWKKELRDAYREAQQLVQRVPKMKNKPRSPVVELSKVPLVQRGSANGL
Sequence of DAPK3 (O43293 whole entry): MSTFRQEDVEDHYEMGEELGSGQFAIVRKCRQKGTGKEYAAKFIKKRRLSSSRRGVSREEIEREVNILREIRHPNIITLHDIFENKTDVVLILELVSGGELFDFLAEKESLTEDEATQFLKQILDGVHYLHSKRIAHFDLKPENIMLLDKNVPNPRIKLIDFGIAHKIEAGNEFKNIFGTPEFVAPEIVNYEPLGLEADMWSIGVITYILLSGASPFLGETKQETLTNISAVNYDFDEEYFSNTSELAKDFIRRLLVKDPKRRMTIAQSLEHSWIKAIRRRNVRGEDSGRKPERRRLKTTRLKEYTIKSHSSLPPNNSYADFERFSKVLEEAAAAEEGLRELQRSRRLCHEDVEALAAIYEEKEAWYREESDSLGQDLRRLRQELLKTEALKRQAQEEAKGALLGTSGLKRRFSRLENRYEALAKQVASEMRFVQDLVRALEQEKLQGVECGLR
Sequence of NEK7 (Q8TDX7 whole entry): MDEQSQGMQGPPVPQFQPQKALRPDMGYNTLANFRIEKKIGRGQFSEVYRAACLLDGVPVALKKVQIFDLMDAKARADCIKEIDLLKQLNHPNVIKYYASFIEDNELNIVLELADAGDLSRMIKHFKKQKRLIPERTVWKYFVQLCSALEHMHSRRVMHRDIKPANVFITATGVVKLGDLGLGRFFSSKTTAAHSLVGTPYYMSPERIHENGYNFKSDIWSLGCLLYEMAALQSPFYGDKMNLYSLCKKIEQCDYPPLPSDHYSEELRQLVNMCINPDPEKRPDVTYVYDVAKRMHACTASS
Sequence of GSK3A (P49840 whole entry): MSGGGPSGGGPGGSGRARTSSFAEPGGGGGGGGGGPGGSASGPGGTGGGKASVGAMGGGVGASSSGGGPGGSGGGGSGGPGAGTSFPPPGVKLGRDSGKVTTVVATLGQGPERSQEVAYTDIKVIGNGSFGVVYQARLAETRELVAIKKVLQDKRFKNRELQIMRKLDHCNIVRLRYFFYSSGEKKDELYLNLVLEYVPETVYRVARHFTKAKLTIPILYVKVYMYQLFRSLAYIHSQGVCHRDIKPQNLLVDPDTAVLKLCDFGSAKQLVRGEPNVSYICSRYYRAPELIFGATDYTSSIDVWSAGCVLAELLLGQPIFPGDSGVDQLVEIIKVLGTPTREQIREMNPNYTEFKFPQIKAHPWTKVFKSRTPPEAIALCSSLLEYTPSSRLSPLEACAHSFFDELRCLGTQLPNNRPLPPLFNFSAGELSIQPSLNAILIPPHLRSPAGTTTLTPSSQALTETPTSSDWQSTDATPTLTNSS

In the case of Cc1cnc2nc1Nc1cccc(c1)COCc1cc(ccc1OCCN1CCCC1)N2 [Compound 1], the remaining binding at 0.1 µM (RIPK5) was 93%, the remaining binding at 0.1 µM (MAP3K3) was 74% and the remaining binding at 0.1 µM (NEK7) was 72%. It also gave a remaining binding at 0.1 µM (MYLK) of 93%, a remaining binding at 0.1 µM (HIPK4) of 79% and a remaining binding at 0.1 µM (MAP4K3) of 83%. The remaining binding at 0.1 µM (LKB1) was 100%, the remaining binding at 0.1 µM (ULK2) was 83% and the remaining binding at 0.1 µM (CSK) was 100%. The remaining binding at 0.1 µM (CDKL5) was 100%, the remaining binding at 0.1 µM (TNK2) was 86% and the remaining binding at 0.1 µM (ACVR1B) was 100%. It also gave a remaining binding at 0.1 µM (GSK3A) of 100%, a remaining binding at 0.1 µM (WNK3) of 95% and a remaining binding at 0.1 µM (FLT3(D835H)) of 46%. The remaining binding at 0.1 µM (RIPK2) was 99%, the remaining binding at 0.1 µM (WNK1) was 90% and the remaining binding at 0.1 µM (FGFR3) was 95%. The remaining binding at 0.1 µM (GRK2) was 90%, the remaining binding at 0.1 µM [1] was 0% and the remaining binding at 0.1 µM (MRCKA) was 99%. For the same molecule, the remaining binding at 0.1 µM (ABL1-nonphosphorylated) was 55%, the remaining binding at 0.1 µM (ROS1) was 76% and the remaining binding at 0.1 µM [2] was 83%. The remaining binding at 0.1 µM (DAPK3) was 94%.
